Data published in patent US6716833B2, “Acetylenic α-amino acid-based sulfonamide hydroxamic acid tace inhibitors” (priority 1999, dated 2004).
Where two headings read alike, the source gives them in different places.

Biological target: TNF-α converting enzyme (TACE) (Homo sapiens, UniProt P78536)
Assay: TACE inhibition (fluorescent peptidyl substrate)
Assay type: biochemical
Details: for inhibition at 1 µM: read-out: % Inhibition at 1 uM (In Vitro Inhibition of TACE)
[1] = IC 50 nM (In Vitro Inhibition of TACE), Table 15
[2] = read-out: IC 50 nM (In Vitro Inhibition of TACE), Table 15

Sequence of TNF-α converting enzyme (TACE) (P78536 215-824, species assumed): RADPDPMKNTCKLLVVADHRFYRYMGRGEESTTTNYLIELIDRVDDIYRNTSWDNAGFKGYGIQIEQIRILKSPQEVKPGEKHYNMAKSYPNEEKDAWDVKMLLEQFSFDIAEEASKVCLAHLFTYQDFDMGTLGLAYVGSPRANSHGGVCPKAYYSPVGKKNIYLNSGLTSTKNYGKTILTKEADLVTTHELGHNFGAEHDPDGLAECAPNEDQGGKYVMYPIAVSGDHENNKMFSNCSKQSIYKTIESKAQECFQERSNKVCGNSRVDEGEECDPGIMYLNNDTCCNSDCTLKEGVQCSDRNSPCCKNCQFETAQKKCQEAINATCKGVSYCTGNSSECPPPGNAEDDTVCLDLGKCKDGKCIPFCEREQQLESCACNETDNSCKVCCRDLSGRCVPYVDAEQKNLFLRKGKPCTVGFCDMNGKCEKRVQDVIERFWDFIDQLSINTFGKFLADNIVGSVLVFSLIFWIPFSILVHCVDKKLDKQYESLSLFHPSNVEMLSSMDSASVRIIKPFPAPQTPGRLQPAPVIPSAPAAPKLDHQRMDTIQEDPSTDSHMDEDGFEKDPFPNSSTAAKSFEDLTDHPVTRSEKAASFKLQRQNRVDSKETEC

Molecule | IC50 [1] [nM] | further results
CC#CCOc1ccc(S(=O)(=O)N[C@H](CCC(=O)O)C(=O)NO)cc1 [Example 304, (4R)-4-({[4-(But-2-ynyloxy)phenyl]sulfonyl}amino)-5-(hydroxyamino)-5-oxopentanoic acid] | 28.9 | –
CC#CCOc1ccc(S(=O)(=O)NC(CCN)C(=O)NO)cc1 (centres unmarked) [Example 70] | – | % Inhibition at 1 uM (In Vitro Inhibition of TACE) (Table 15): 21.1%
CC#CCOc1ccc(S(=O)(=O)N[C@H](Cc2cnc[nH]2)C(=O)NO)cc1 [Example 306, (2R)-2-({[4-(But-2-ynyloxy)phenyl]sulfonyl}amino)-N-hydroxy-3-(1H-imidazol-5-yl)propanamide] | 8.7 | –
CC#CCOc1ccc(S(=O)(=O)N[C@H](CCCNC(=N)NS(=O)(=O)c2c(C)cc(OC)c(C)c2C)C(=O)NO)cc1 [Example 295] | 29.3 | –
CC#CCOc1ccc(S(=O)(=O)NC(C(=O)NO)C(C)OCc2ccccc2)cc1 (centres unmarked) [Example 99] | – | % Inhibition at 1 uM (In Vitro Inhibition of TACE) (Table 15): 28.5%
CC#CCOc1ccc(S(=O)(=O)N(C)CC(=O)NO)cc1 [Example 17, 2-[(4-but-2-ynyloxy-Benzenesulfonyl)-methyl-amino]-N-hydroxy-acetamide] | – | IC50 (read-out: TACE IC50): 6.8 nM
(2R)-2-({[4-(But-2-ynyloxy)phenyl]sulfonyl}amino)-5-{[2-(3,4-dichlorophenyl)acetyl]amino}-N-hydroxypentanamide [Example 336] | – | IC50 [2]: 6.11 nM
CC#CCOc1ccc(S(=O)(=O)N[C@@H](C(=O)NO)C(C)C)cc1 [Example 85] | 8.3 ± 2.7 | inhibition at 1 µM (Table 15): 102%
CC#CCOc1ccc(S(=O)(=O)NC(C)C(=O)NO)cc1 (stereo in doubt) [Example 62B, L-2-(4-but-2-ynyloxy-Benzenesulfonylamino)-N-hydroxy-propionamide] | – | inhibition at 1 µM (Table 15): 46.2%
CC#CCOc1ccc(S(=O)(=O)N[C@H](CCCNC(=N)N)C(=O)NO)cc1 [Example 296, (2R)-2-(4-But-2-ynyloxy-benzenesulfonylamino)-5-guanidino-pentanoic acid hydroxyamide] | 10.9 | –
CC#CCOc1ccc(S(=O)(=O)N[C@@H](CCCCN)C(=O)NO)cc1 [Example 92] | 490 ± 139 | –
CC#CCOc1ccc(S(=O)(=O)NC(C(=O)NO)C(C)O)cc1 (centres unmarked) [Example 100] | – | % Inhibition at 1 uM (In Vitro Inhibition of TACE) (Table 15): 15.4%
CC#CCOc1ccc(S(=O)(=O)N[C@@H](CSCc2ccc(OC)cc2)C(=O)NO)cc1 [Example 74] | 297 ± 119 | –
CC#CCOc1ccc(S(=O)(=O)N[C@H](C(=O)NO)[C@@H](C)CC)cc1 [Example 89] | – | % Inhibition at 1 uM (In Vitro Inhibition of TACE) (Table 15): 56.8%
CC#CCOc1ccc(S(=O)(=O)N[C@H](Cc2ccccc2)C(=O)NO)cc1 [Example 81] | 4.99 ± 1.1 | –
CC#CCOc1ccc(S(=O)(=O)N[C@H](CSCc2ccc(C)cc2)C(=O)NO)cc1 [Example 301, (2S)-2-({[4-(But-2-ynyloxy)phenyl]sulfonyl}amino)-N-hydroxy-3-[(4-methylbenzyl)thio]propanamide] | 24.6 | –
CC#CCOc1ccc(S(=O)(=O)N[C@H](CCCNC(=O)Oc2ccc(OC)cc2)C(=O)NO)cc1 [Example 372, 4-Methoxyphenyl(4R)-4-({[4-(but-2-ynyloxy)phenyl]sulfonyl}amino)-5-(hydroxyamino)-5-oxopentylcarbamate] | – | IC50 [2]: 8.4 nM
CC#CCOc1ccc(S(=O)(=O)N[C@@H](CCCC)C(=O)NO)cc1 [Example 93] | 546 | –
CC#CCOc1ccc(S(=O)(=O)N[C@H](CCC(N)=O)C(=O)NO)cc1 [Example 303, (2R)-2-({[4-(But-2-ynyloxy)phenyl]sulfonyl}amino)-N-hydroxypentanediamide] | 27.4 | –
CC#CCOc1ccc(S(=O)(=O)NC(CCCN)C(=O)NO)cc1 (centres unmarked) [Example 76] | – | % Inhibition at 1 uM (In Vitro Inhibition of TACE) (Table 15): 29.7%

Now from value to molecule, other results behind:

IC50 [1] [nM] | Molecule | further results
17.6 | CC#CCOc1ccc(S(=O)(=O)N[C@@H](C(=O)NO)[C@H](C)OCc2ccccc2)cc1 [Example 323, (2R,3S)-3-(Benzyloxy)-2-({[4-(but-2-ynyloxy)phenyl]sulfonyl}amino)-N-hydroxybutanamide] | –
8.84 | CC#CCOc1ccc(S(=O)(=O)N[C@H](CCCCNC(=O)CCc2ccccc2)C(=O)NO)cc1 [Example 358, (2R)-2-({[4-(But-2-ynyloxy)phenyl]sulfonyl}amino)-N-hydroxy-6-[(3-phenylpropanoyl)amino]hexanamide] | –
4.6 | CC#CCOc1ccc(S(=O)(=O)N[C@H](CCCNC(=O)CCc2ccccc2)C(=O)NO)cc1 [Example 339, (2R)-2-({[4-(But-2-ynyloxy)phenyl]sulfonyl}amino)-N-hydroxy-5-[(3-phenylpropanoyl)amino]pentanamide] | –
6.28 | CC#CCOc1ccc(S(=O)(=O)N[C@H](CCCCNC(=O)c2ccccc2)C(=O)NO)cc1 [Example 350, N-[(5R)-5-({[4-(But-2-ynyloxy)phenyl]sulfonyl}amino)-6-(hydroxyamino)-6-oxohexyl]benzamide] | –
16.9 | CC#CCOc1ccc(S(=O)(=O)N[C@H](CCCNC(=O)N(CC)CC)C(=O)NO)cc1 [Example 373] | –
3.15 | CC#CCOc1ccc(S(=O)(=O)N[C@H](CCCNC(=O)c2ccsc2)C(=O)NO)cc1 [Example 347, N-[(4R)-4-({[4-(But-2-ynyloxy)phenyl]sulfonyl}amino)-5-(hydroxyamino)-5-oxopentyl]thiophene-3-carboxamide] | –
58.6 | CC#CCOc1ccc(S(=O)(=O)N[C@H](Cc2ccc(OCc3ccccc3)cc2)C(=O)NO)cc1 [Example 326, (2R)-3-[4-(Benzyloxy)phenyl]-2-({[4-(but-2-ynyloxy)phenyl]sulfonyl}amino)-N-hydroxypropanamide] | –
11.8 | CC#CCOc1ccc(S(=O)(=O)N[C@@H](C(=O)NO)[C@H](C)O)cc1 [Example 322, (2R,3S)-2-({[4-(But-2-ynyloxy)phenyl]sulfonyl}amino)-N,3-dihydroxybutanamide] | –
5.13 | CC#CCOc1ccc(S(=O)(=O)N[C@H](CCCNC(=O)CCC)C(=O)NO)cc1 [Example 332, (2R)-2-({[4-(But-2-ynyloxy)phenyl]sulfonyl)amino)-5-(butyrylamino)-N-hydroxypentanamide] | –
151 | CC#CCOc1ccc(S(=O)(=O)N[C@H](CCCNC(=O)c2cccs2)C(=O)NO)cc1 [Example 368, (4R)-4-({[4-(but-2-ynyloxy)Phenyl]sulfonyl}amino)-5-(hydroxyamino)-5-oxopentylithiophene-2-carboxamide] | –
4.54 | CC#CCOc1ccc(S(=O)(=O)N[C@H](CCCNC(=O)c2ccccc2OC)C(=O)NO)cc1 [Example 342, N-[(4R)-4-({[4-(But-2-ynyloxy)phenyl]sulfonyl}amino)-5-(hydroxyamino)-5-oxopentyl]-2-methoxybenzamide] | –
7.4 | CC#CCOc1ccc(S(=O)(=O)N[C@H](COCc2ccccc2)C(=O)NO)cc1 [Example 320, (2R)-3-(Benzyloxy)-2-({[4-(but-2-ynyloxy)phenyl]sulfonyl}amino)-N-hydroxypropanamide] | –
4.97 | CC#CCOc1ccc(S(=O)(=O)N[C@H](CCCCNC(=O)c2ccccc2OC)C(=O)NO)cc1 [Example 360, N-[(5R)-5-({[4-(But-2-ynyloxy)phenyl]sulfonyl}amino)-6-(hydroxyamino)-6-oxohexyl]-2-methoxybenzamide] | –
12.4 | CC#CCOc1ccc(S(=O)(=O)N[C@H](CCCCNC(=O)Cc2ccc(Cl)c(Cl)c2)C(=O)NO)cc1 [Example 355, (2R)-2-({[4-(But-2-ynyloxy)phenyl]sulfonyl}amino)-6-{[2-(3,4-dichlorophenyl)acetyl]amino}-N-hydroxyhexanamide] | –
7.79 | CC#CCOc1ccc(S(=O)(=O)N[C@H](CCCCNC(=O)c2cnc3ccccc3c2)C(=O)NO)cc1 [Example 364, N-[(5R)-5-({[4-(But-2-ynyloxy)phenyl]sulfonyl}amino)-6-(hydroxyamino)-6-oxohexyl]quinoline-3-carboxamide] | –
21.9 | CC#CCOc1ccc(S(=O)(=O)N[C@H](CCCNC(=O)CN2CCOCC2)C(=O)NO)cc1 [Example 376, (2R)-2-({[4-(but-2-ynyloxy)Phenyl]sulfonyl}amino)-N-hydroxy-5-[(2-morpholin-4-ylacetyl)amino]pentanamide] | –
4.63 | CC#CCOc1ccc(S(=O)(=O)N[C@H](CCCNC(=O)c2cnc3ccccc3c2)C(=O)NO)cc1 [Example 346, N-[(4R)-4-({[4-(But-2-ynyloxy)phenyl]sulfonyl}amino)-5-(hydroxyamino)-5-oxopentyl]quinoline-3-carboxamide] | –
4.43 | CC#CCOc1ccc(S(=O)(=O)N[C@H](CCCNC(=O)Cc2ccccc2)C(=O)NO)cc1 [Example 345, (2R)-2-({[4-(But-2-ynyloxy)phenyl]sulfonyl}amino)-N-hydroxy-5-[(2-phenylacetyl)amino]pentanamide] | –
6.67 | CC#CCOc1ccc(S(=O)(=O)N[C@H](CCCNC(=O)c2ccncc2)C(=O)NO)cc1 [Example 340, N-[(4R)-4-({[4-(But-2-ynyloxy)phenyl]sulfonyl}amino)-5-(hydroxyamino)-5-oxopentyl]isonicotinamide] | –
6.3 | CC#CCOc1ccc(S(=O)(=O)N[C@H](CCC)C(=O)NO)cc1 [Example 313, (2R)-2-({[4-(But-2-ynyloxy)phenyl]sulfonyl}amino)-N-hydroxypentanamide] | –
4.7 | CC#CCOc1ccc(S(=O)(=O)N[C@H](Cc2cccs2)C(=O)NO)cc1 [Example 321, (2R)-2-({[4-(But-2-ynyloxy)phenyl]sulfonyl}amino)-N-hydroxy-3-thien-2-yl-propanamide] | –
9.41 | CC#CCOc1ccc(S(=O)(=O)N[C@H](CCCCNC(=O)c2ccc3[nH]cnc3c2)C(=O)NO)cc1 [Example 349, N-[(5R)-5-({[4-(But-2-ynyloxy)phenyl]sulfunyl}amino)-6-(hydroxyamino)-6-oxohexyl]-1H-benzimidazole-5-carboxamide] | –
15.7 | CC#CCOc1ccc(S(=O)(=O)N[C@H](Cc2ccc3ccccc3c2)C(=O)NO)cc1 [Example 311, (2R)-2-({[4-(But-2-ynyloxy)phenyl]sulfonyl}amino)-N-hydroxy-3-(2-naphthyl)propanamide] | –
